Columns and labels:
mouse TRPV1 E571A mutant = mouse TRPV1 E571A mutant (Mus musculus, UniProt Q704Y3, E571A); test: Whole-cell patch-clamp of TRPV1 E571A mutant; assay type: cell-based; details: whole-cell recording
mouse TRPV1 T551V mutant = mouse TRPV1 T551V mutant (Mus musculus, UniProt Q704Y3, T551V); test: cell-based; assay type: cell-based
mouse TRPV1 (wildtype) [1] = biological target: T1, mouse TRPV1 (wildtype) (Mus musculus, UniProt Q704Y3); test: Whole-cell patch-clamp of wild-type TRPV1 in HEK293 cells; assay type: cell-based
T1 sequence (Q704Y3 whole entry): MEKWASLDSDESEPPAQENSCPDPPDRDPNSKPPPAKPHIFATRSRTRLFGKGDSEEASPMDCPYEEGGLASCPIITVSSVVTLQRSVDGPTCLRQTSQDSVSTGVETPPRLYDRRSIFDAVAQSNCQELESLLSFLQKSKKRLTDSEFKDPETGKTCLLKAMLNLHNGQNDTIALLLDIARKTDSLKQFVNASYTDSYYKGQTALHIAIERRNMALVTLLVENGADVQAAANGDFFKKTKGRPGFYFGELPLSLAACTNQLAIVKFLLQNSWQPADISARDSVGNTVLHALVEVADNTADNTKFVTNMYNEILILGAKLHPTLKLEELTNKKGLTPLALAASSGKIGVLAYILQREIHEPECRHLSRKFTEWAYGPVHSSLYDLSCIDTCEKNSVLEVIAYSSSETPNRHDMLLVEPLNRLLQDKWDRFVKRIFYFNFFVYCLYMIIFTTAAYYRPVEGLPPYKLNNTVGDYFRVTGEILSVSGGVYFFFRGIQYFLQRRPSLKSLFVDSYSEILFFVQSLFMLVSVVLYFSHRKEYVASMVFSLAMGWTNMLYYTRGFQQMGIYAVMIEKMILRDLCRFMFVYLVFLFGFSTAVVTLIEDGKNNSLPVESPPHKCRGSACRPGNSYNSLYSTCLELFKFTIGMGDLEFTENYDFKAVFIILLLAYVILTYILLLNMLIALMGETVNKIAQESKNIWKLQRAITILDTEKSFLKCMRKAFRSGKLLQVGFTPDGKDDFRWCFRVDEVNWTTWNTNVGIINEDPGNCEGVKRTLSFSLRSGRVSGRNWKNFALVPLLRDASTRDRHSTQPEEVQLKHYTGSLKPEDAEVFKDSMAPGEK

mouse TRPV1 Y512A mutant = mouse TRPV1 Y512A mutant (Mus musculus, UniProt Q704Y3, Y512A); assay type: cell-based; details: saturating concentration for the wildtype channel; whole-cell recording
Sequence of mouse TRPV1 Y512A mutant (Q704Y3 whole entry Y512A): as the sequence (Q704Y3 whole entry) above, with Y512A counted along it

mouse TRPV1 (wildtype) [2] = biological target: T1, mouse TRPV1 (wildtype); details: WT channel; cited from earlier work

Sequence of mouse TRPV1 T551V mutant (Q704Y3 whole entry T551V): as the sequence (Q704Y3 whole entry) above, with T551V counted along it
Sequence of mouse TRPV1 E571A mutant (Q704Y3 whole entry E571A): as the sequence (Q704Y3 whole entry) above, with E571A counted along it

Row | SMILES | activation of the E571A mutant (mouse TRPV1 E571A mutant) | EC50 (mouse TRPV1 T551V mutant) [nM] | EC50 (mouse TRPV1 (wildtype) [1]) [nM] | shift of activation to higher concentration, T551V versus wildtype (mouse TRPV1 T551V mutant) | activation of the Y512A mutant (mouse TRPV1 Y512A mutant) | maximum open probability (Po_max) (mouse TRPV1 (wildtype) [2]) [%]
1 | CCCCC/C=C\C/C=C\C/C=C\C/C=C\CCCC(=O)NCCO [AEA, anandamide] | barely opened | 4880 ± 780 | 6020 ± 1230 |  |  | 
2 | COc1cc(CNC(=O)CCCC/C=C/C(C)C)ccc1O [capsaicin] | can still activate |  | 146 ± 39 | about 10 fold | activated | 
3 | CCCCCCCC/C=C\CCCCCCCC(=O)NCCc1ccc(O)c(O)c1 [OLDA, N-oleoyldopamine] | barely opened | 540 ± 140 | 290 ± 80 |  |  | 
4 | NCCOB(c1ccccc1)c1ccccc1 [2-APB, 2-aminoethyl diphenylborinate] |  |  |  |  | largely activated | ~100

Source: publication PMC8387766 (The Journal of Biological Chemistry, 2021)
